Test results taken from ChEMBL document CHEMBL4732191, “Synthesis of novel potent cytotoxicy podophyllotoxin-naphthoquinone compounds via microwave-assited multicomponent domino reactions” (Bioorg Med Chem Lett, 2021).

Experiments:
KB = assay: Cytotoxicity against human KB cells; type: functional, cell-based
HepG2 = assay: Cytotoxicity against human HepG2 cells; type: functional, cell-based
SK-LU-1 = assay: Cytotoxicity against human SK-LU-1 cells; type: functional, cell-based
MCF7 = assay: Cytotoxicity against human MCF7 cells; type: functional, cell-based
HEK293 = assay: Cytotoxicity against human HEK293 cells; type: cell-based
[1] = Selectivity index, ratio of IC50 for human HEK293 cells to IC50 for human HepG2 cells; type: toxicity; conditions: HEK293 cells and HepG2 cells, read-out: Ratio IC50
[2] = Selectivity index, ratio of IC50 for human HEK293 cells to IC50 for human SK-LU-1 cells

SMILES	IC50 (KB) [nM]	IC50 (HepG2) [nM]	IC50 (SK-LU-1) [nM]	IC50 (MCF7) [nM]	IC50 (HEK293) [nM]	selectivity ratio [1]	Ratio IC50 [2]
O=C1OCC2=C1C(c1ccc(C(F)(F)F)cc1)C1=C(N2)C(=O)c2ccccc2C1=O (stereo not drawn)	800	1240	510	> 2500	7590		
COc1cccc(C2C3=C(COC3=O)NC3=C2C(=O)c2ccccc2C3=O)c1 (stereo not drawn)	1230	460	< 40	> 2500	9350	≥ 200	>=200
COc1ccc(C2C3=C(COC3=O)NC3=C2C(=O)c2ccccc2C3=O)cc1 (stereo not drawn)	880	2060	880	> 2500	8170		
O=C1OCC2=C1C(c1ccc(F)cc1)C1=C(N2)C(=O)c2ccccc2C1=O (stereo not drawn)	2160	440	280	> 2500	5350		
O=C1OCC2=C1C(c1ccc3c(c1)C(=O)OC3)C1=C(N2)C(=O)c2ccccc2C1=O (stereo not drawn)	1860	470	80	> 2500	4780		
O=C1OCC2=C1C(c1cccc3ccccc13)C1=C(N2)C(=O)c2ccccc2C1=O (stereo not drawn)	> 2500	> 2500	> 2500	> 2500	14700		
O=C1OCC2=C1C(c1ccccc1)C1=C(N2)C(=O)c2ccccc2C1=O (stereo not drawn)	1540	< 44	< 44	1980	1340	≥ 200	>=200
COc1cc(C2C3=C(COC3=O)NC3=C2C(=O)c2ccccc2C3=O)ccc1O (stereo not drawn)	1900	410	410	> 2500	1410		
O=C1OCC2=C1C(c1ccc(Cl)cc1)C1=C(N2)C(=O)c2ccccc2C1=O (stereo not drawn)	1460	1350	500	> 2500	5890		
O=C1OCC2=C1C(c1ccccc1[N+](=O)[O-])C1=C(N2)C(=O)c2ccccc2C1=O (stereo not drawn)	2340	> 2500	2220	> 2500	9950		
O=C1OCC2=C1C(c1cccc([N+](=O)[O-])c1)C1=C(N2)C(=O)c2ccccc2C1=O (stereo not drawn)	1160	< 39	< 39	2190	1470	≥ 200	>=200
O=C1OCC2=C1C(c1cccc(Br)c1)C1=C(N2)C(=O)c2ccccc2C1=O (stereo not drawn)	1710	< 36	< 36	> 2500	7200	≥ 200	>=200
O=C1OCC2=C1C(c1ccccc1F)C1=C(N2)C(=O)c2ccccc2C1=O (stereo not drawn)	1190	420	280	> 2500	10300		
O=C1OCC2=C1C(c1ccc(Br)cc1)C1=C(N2)C(=O)c2ccccc2C1=O (stereo not drawn)	2140	1500	450	> 2500	8270		
O=C1OCC2=C1C(c1ccc3ccccc3c1)C1=C(N2)C(=O)c2ccccc2C1=O (stereo not drawn)	> 2500	1680	1020	> 2500	7610		
Cc1ccc(C2C3=C(COC3=O)NC3=C2C(=O)c2ccccc2C3=O)cc1 (stereo not drawn)	> 2500	2240	1650	> 2500	21600		
Cc1c2ccncc2c(C)c2c1[nH]c1ccccc12 [ELLIPTECINE]	1750	1660	1540	1580	1690		
